Source: patent US11518760B2 (Liverpool School of Tropical Medicine, priority 2017, dated 2022)

Columns and labels:
[1] = tested on: Wolbachia of the target parasite, Brugia malayi; assay: In vitro microfilariae (Mf) Brugia malayi screen, wsp/gst qPCR; format: cell-based; conditions: B. malayi Mf, 6 days; concentration stands in the drawing (not visible)
Method: An in vitro microfilariae (Mf) assay was used to screen against Wolbachia of the target parasite, Brugia malayi. The Mf were obtained by peritoneal lavage of gerbils (Meriones unguiculatus) harbouring a patent infection of Brugia malayi as described previously (Griffiths et al., 2010, Lab Animal).
Mf were purified using a PD-10 desalting column (Fisher) followed by centrifugation (1200 rpm for 5 minutes at room temperature) then re-suspended in filter-sterilised culture medium consisting of RPMI supplemented with heat-inactivated Foetal Calf Serum (HI-FCS), 1% Penicillin-Streptomycin and 1% Amphotericin B.
After determining the concentration of Mf, the stock solution was diluted in culture medium to ensure a final concentration of 8000 Mf/well of a 96 well plate (100 μl per well). Compounds to be tested (10 mM stock in 100% DMSO) were diluted to appropriate working concentrations in culture medium and 100 μl was added to the appropriate wells of the 96 well plate containing the Mf. Five replicates were used for each compound and each plate contained doxycycline (5 μM) and vehicle (DMSO) controls. The plates were incubated at 37° C., 5% CO2, for 6 days.
On day 6, a visual assessment of motility was performed and wells scored from 0 to 4 (where 0=no movement and 4=highly motile) in order to assess whether there were any direct effects against the Mf. To perform the anti-Wolbachia readout, DNA was extracted from each individual well using the QIAmp DNA Mini Kit (Qiagen) ‘DNA Purification from Tissues’ protocol.
The number of Wolbachia present in Mf was assessed by quantification of the Wolbachia surface protein (wsp) gene copy number and normalised to the nematode glutathione S-transferase (gst) gene by qPCR based on methods described by McGarry et al., 2004, Mol Biochem Parasitol. DNA samples were amplified in duplicate in the following 20 μl reactions containing 1× QuantiTect SYBR Green PCR master mix (Qiagen): for wsp, 0.3 μM each of forward ([…]) and reverse ([…]) primer, 3 mM MgCl2 and 2 μl of DNA. For gst, 0.35 μM of forward ([…]) and reverse primer (ATCACGGACGCCTTCACAG), 3.5 mM MgCl2 and 1 μl of DNA. qPCR was performed using the Bio-Rad CFX384 C1000 thermal cycler (Bio-Rad laboratories LTD) with a denaturation step of 95° C. for 15 min then 40 cycles at 95° C. for 15 s, 57° C. (gst) or 60° C. (wsp) for 30 s, and 72° C. for 30 s. Quantification was determined by Bio-Rad CFX manager software by comparing the DNA samples to that of a standard curve generated from serial dilution of plasmid DNA of the appropriate gene. Data in Table 3 are expressed as a reduction in Wolbachia load in comparison to the vehicle control group and normalized by positive control (doxycycline at 5 μM).

[2] = tested on: Wolbachia in adult Brugia malayi; assay: Adult Brugia malayi mouse model, Wolbachia wsp qPCR; format: in vivo
Excerpt: (§1) In an adult Brugia malayi mouse model treatment groups (BALB/c CCR3−/− mice, 6-8 week old) received compounds by oral delivery for 7-28 days beginning at 6-10 weeks post-infection intraperitoneal with Brugia malayi third-stage larvae. Following treatment, at 12 weeks past-infection, adult worms and released microfilariae were recovered from the peritoneal cavity, counted and staged for sex. Genomic DNA was extracted from individual adult worms (10/group) and quantification of the Wolbachia surface protein (wBm-wsp) performed by quantitative PCR.
Treatment dosage unit is mg/kg (MK) and duration stated in days (d). Abbreviations: MIN (minocycline), bid (twice daily), Ms (mesylate). Data in Table 5A are expressed as a reduction in Wolbachia load in comparison to the vehicle control group.
(§2) Table 5B provides a comparison of two stereoisomers in the adult Brugia malayi mouse model above at a range of doses and durations of treatment. Data in Table 5B are expressed as a reduction in Wolbachia load in comparison to the vehicle control group.

[3] = tested on: Brugia malayi microfilariae; assay: Adult Brugia malayi mouse model, microfilaria production; format: in vivo; conditions: Table 5B
Excerpt: as §1, §2

[4] = tested on: C6/36 Aedes albopictus cell line infected with Wolbachia pipientis (Wolbachia strain wAlbB); assay: In vitro insect cell line assay (anti-Wolbachia screen, SYTO 11 high content imaging); format: cell-based; conditions: 168 h; C6/36 Aedes albopictus cells infected with Wolbachia pipientis wAlbB, 7 days incubation, SYTO 11 imaging; read-out: In vitro anti-Wolbachia activity
Outline: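 Wolbachia wAlbB-infected C6/36 Aedes albopictus cells were exposed to compounds at a final 5 μM for 7 days at 26 °C, with DMSO-medium wells as untreated controls. Cells were then stained with SYTO 11 for 15 min, imaged by high-content microscopy and scored by texture analysis.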

[5] = Table 5B, two stereoisomers at a range of doses and durations, dose/duration stands in the drawing (not visible)
[6] = two stereoisomers at a range of doses and durations, dose/duration stands in the drawing (not visible)
[7] = Table 5A, BALB/c CCR3−/− mice, oral, dose/duration stands in the drawing (not visible)

**Q.** With `CC1COCCN1c1nc(NCc2cccnc2C(F)(F)F)c2cccnc2n1` (stereo not drawn) [drawing 684] as the molecule, how does the “% Reduction level normalised to DOX (5 μm)” value (“% Reduction level normalised” below) [1] read?
**A.** The value was 99.8%.

**Q.** And the “% Wolbachia reduction cf. DMSO” value [1]?
**A.** Its value is 89.4%.

**Q.** How did the “% Wolbachia reduction cf median Vehicle” value ([2]; Table 5A, BALB/c CCR3−/− mice, oral, 25 MK bid + 28 d, worms recovered 12 weeks post-infection) turn out when `CN(C)c1ccc(O)c2c1C[C@H]1C[C@H]3[C@H](N(C)C)C(O)=C(C(N)=O)C(=O)[C@@]3(O)C(O)=C1C2=O` [MIN, minocycline, reference compound] was run?
**A.** The value was 83.6%.

**Q.** What about the “% Wolbachia reduction cf median Vehicle” value ([2]; Table 5B, BALB/c CCR3−/− mice, oral, 25 MK bid + 28 d treatment + 14 d wash-out) of the same molecule?
**A.** Its value is 98.2%.

**Q.** And the “% Microfilaria (Mf) production reduction cf median Vehicle” value ([3]; BALB/c CCR3−/− mice, oral, 25 MK bid + 28 d treatment + 14 d wash-out)?
**A.** Its value is 100%.

**Q.** What does the source list for `C[C@H]1COCCN1c1nc(NCc2cccnc2C(F)(F)F)c2cccnc2n1` [drawing 696]?
**A.** % Wolbachia reduction cf median Vehicle [2, 5]: 99.9%; % Microfilaria (Mf) production reduction cf median Vehicle [3, 6]: 100%

**Q.** Which “% Reduction level normalised” value [1] does the source give for `FC1CCN(c2nc(NCc3cccnc3C(F)(F)F)c3cccnc3n2)CC1` [drawing 685] here?
**A.** The value was 97.4%.

**Q.** What about the “% Wolbachia reduction cf. DMSO” value [1] of the same molecule?
**A.** The value was 87.3%.

**Q.** How did the “% Wolbachia reduction cf median Vehicle” value [2, 7] turn out when `CC(C)N(C)c1nc(NCc2cccnc2C(F)(F)F)c2cccnc2n1` [drawing 691] was run?
**A.** Its value is 99.4%.

**Q.** Which “% Wolbachia reduction cf median Vehicle” value [2, 7] does the source give for `CC1COCCN1c1nc(NCc2cccnc2C(F)(F)F)c2cccnc2n1` (stereo not drawn) [drawing 693] here?
**A.** The value was 98.8%.

**Q.** With `CC1COCCN1c1nc(NCc2cccnc2C(F)(F)F)c2cccnc2n1` (stereo not drawn) [drawing 692] as the molecule, how does the “% Wolbachia reduction cf median Vehicle” value [2, 7] read?
**A.** The value was 97.8%.

**Q.** `C[C@H]1COCCN1c1nc(NCc2cccnc2C(F)(F)F)c2cccnc2n1` [drawing 697] was tested. Which “% Wolbachia reduction cf median Vehicle” value [2, 5] did it give?
**A.** The value was 97.8%.

**Q.** And the “% Microfilaria (Mf) production reduction cf median Vehicle” value [3, 6]?
**A.** Its value is 100%.

**Q.** `C[C@@H]1COCCN1c1nc(NCc2cccnc2C(F)(F)F)c2cccnc2n1` [drawing 699] was tested. Which “% Wolbachia reduction cf median Vehicle” value [2, 5] did it give?
**A.** Its value is 99.6%.

**Q.** And the “% Microfilaria (Mf) production reduction cf median Vehicle” value [3, 6]?
**A.** The value was 100%.

**Q.** `C[C@@H]1COCCN1c1nc(NCc2cccnc2C(F)(F)F)c2cccnc2n1` [drawing 698] was tested. Which “% Wolbachia reduction cf median Vehicle” value [2, 5] did it give?
**A.** Its value is 99.7%.

**Q.** And the “% Microfilaria (Mf) production reduction cf median Vehicle” value [3, 6]?
**A.** Its value is 100%.

**Q.** How did the “% Wolbachia reduction cf median Vehicle” value [2, 5] turn out when `C[C@H]1COCCN1c1nc(NCc2cccnc2C(F)(F)F)c2cccnc2n1` [drawing 695] was run?
**A.** The value was 99.7%.

**Q.** What about the “% Microfilaria (Mf) production reduction cf median Vehicle” value [3, 6] of the same molecule?
**A.** Its value is 100%.

**Q.** Which results are given for `C[C@@H]1COCCN1c1nc(NCc2cccnc2C(F)(F)F)c2cccnc2n1` [drawing 700]?
**A.** % Wolbachia reduction cf median Vehicle [2, 5]: 86.8%; % Microfilaria (Mf) production reduction cf median Vehicle [3, 6]: 100%

**Q.** What does the source list for `FC1(F)CCN(c2nc(NCc3cccnc3C(F)(F)F)c3cccnc3n2)CC1` [drawing 686]?
**A.** % Reduction level normalised to DOX (5 μm) [1]: 98.2%; % Wolbachia reduction cf. DMSO [1]: 88.0%

**Q.** What does the source list for `C[C@@H]1COCCN1c1nc(NCc2cccnc2C(F)(F)F)c2cccnc2n1` [drawing 701]?
**A.** % Wolbachia reduction cf median Vehicle [2, 5]: 82.2%; % Microfilaria (Mf) production reduction cf median Vehicle [3, 6]: 91.4%

**Q.** Which “% Reduction level normalised” value [1] does the source give for `FC(F)(F)c1ncccc1CNc1nc(N2CCC(Cl)CC2)nc2ncccc12` [drawing 687] here?
**A.** Its value is 92.9%.

**Q.** What about the “% Wolbachia reduction cf. DMSO” value [1] of the same molecule?
**A.** The value was 83.3%.

**Q.** `C[C@H]1COCCN1c1nc(NCc2cccnc2C(F)(F)F)c2cccnc2n1` [drawing 694] was tested. Which “% Wolbachia reduction cf median Vehicle” value [2, 7] did it give?
**A.** The value was 98.5%.

**Q.** How did the EC50 [4] turn out when `CC(c1ccccc1C(F)(F)F)N(C)c1nc(Cl)nc2ccsc12` (stereo not drawn) [Example 67, 2-chloro-N-methyl-N-(1-(2-(trifluoromethyl)phenyl)ethyl)thieno[3,2-d]pyrimidin-4-amine] was run?
**A.** Its EC50 is 100 to 1000 nM.

**Q.** With `CC1CN(c2nc(NCc3ccccc3C(F)(F)F)c3cccnc3n2)C[C@H](C)O1` (stereo partly drawn) [Example 268, 2-((6S)-2,6-dimethylmorpholino)-N-(2-(trifluoromethyl)benzyl)pyrido[2,3-d]pyrimidin-4-amine] as the molecule, how does the EC50 [4] read?
**A.** The EC50 was 10 to 100 nM.

**Q.** For `CN1CC(Nc2nc(NCc3ccccc3C(F)(F)F)c3cccnc3n2)C1` [Example 142, N^2-(1-methylazetidin-3-yl)-N^4-(2-(trifluoromethyl)benzyl)pyrido[2,3-d]pyrimidine-2,4-diamine], which EC50 [4] is on record?
**A.** Its EC50 is 1000 to 100000 nM.

**Q.** How did the EC50 [4] turn out when `Cc1nc(NC(C)c2ccccc2C(F)(F)F)c2sccc2n1` (stereo not drawn) [Example 65, 2-methyl-N-(1-(2-(trifluoromethyl)phenyl)ethyl)thieno[3,2-d]pyrimidin-4-amine] was run?
**A.** The EC50 was 10 to 100 nM.

**Q.** How did the EC50 [4] turn out when `FC(F)(F)c1ncccc1CNc1nc(N2CCOCC2C2CC2)nc2ncccc12` (stereo not drawn) [Example 253, 2-(3-cyclopropylmorpholino)-N-((2-(trifluoromethyl)pyridin-3-yl)methyl)pyrido[2,3-d]pyrimidin-4-amine] was run?
**A.** Its EC50 is 1 to 10 nM.

**Q.** `CC(C)Nc1nc(NCc2cccnc2C(F)(F)F)c2cccnc2n1` [Example 150, N^2-isopropyl-N^4-((2-(trifluoromethyl)pyridin-3-yl)methyl)pyrido[2,3-d]pyrimidine-2,4-diamine] was tested. Which EC50 [4] did it give?
**A.** The EC50 was 10 to 100 nM.

**Q.** For `FC1CN(c2nc(NCc3cccnc3C(F)(F)F)c3cccnc3n2)C1` [Example 200, 2-(3-fluoroazetidin-1-yl)-N-((2-(trifluoromethyl)pyridin-3-yl)methyl)pyrido[2,3-d]pyrimidin-4-amine], which EC50 [4] is on record?
**A.** The EC50 was 10 to 100 nM.

**Q.** With `CC(C)Nc1nc(N(C)Cc2ccccc2C(F)(F)F)c2sccc2n1` [Example 50, N^2-isopropyl-N^4-methyl-N^4-(2-(trifluoromethyl)benzyl)thieno[3,2-d]pyrimidine-2,4-diamine] as the molecule, how does the EC50 [4] read?
**A.** The EC50 was 10 to 100 nM.

**Q.** With `FC(F)(F)c1ncccc1CNc1nc(N2CC3CC2CO3)nc2ncccc12` (stereo not drawn) [Example 255, 2-(2-oxa-5-azabicyclo[2.2.1]heptan-5-yl)-N-((2-(trifluoromethyl)pyridin-3-yl)methyl)pyrido[2,3-d]pyrimidin-4-amine] as the molecule, how does the EC50 [4] read?
**A.** The EC50 was 1 to 10 nM.

**Q.** With `FC(F)(F)c1ncccc1CNc1nc(N2CCOC(C3CC3)C2)nc2ncccc12` (stereo not drawn) [Example 278, 2-(2-cyclopropylmorpholino)-N-((2-(trifluoromethyl)pyridin-3-yl)methyl)pyrido[2,3-d]pyrimidin-4-amine] as the molecule, how does the EC50 [4] read?
**A.** Its EC50 is 0.01 to 1 nM.

**Q.** `CN(Cc1ccccc1)c1nc(NCCCN2CCCC2=O)c2sccc2n1` [Example 36, 1-(3-((2-(benzyl(methyl)amino)thieno[3,2-d]pyrimidin-4-yl)amino)propyl)pyrrolidin-2-one] was tested. Which EC50 [4] did it give?
**A.** The EC50 was 1000 to 100000 nM.

**Q.** For `CS(=O)(=O)C1CCN(c2nc(NCc3cccnc3C(F)(F)F)c3cccnc3n2)C1` (stereo not drawn) [Example 263, 2-(3-(methylsulfonyl)pyrrolidin-1-yl)-N-((2-(trifluoromethyl)pyridin-3-yl)methyl)pyrido[2,3-d]pyrimidin-4-amine], which EC50 [4] is on record?
**A.** Its EC50 is 100 to 1000 nM.

**Q.** For `CC(C)N(C)c1nc(NCc2cccnc2C(F)(F)F)c2ccccc2n1` [Example 176, N^2-isopropyl-N^2-methyl-N^4-((2-(trifluoromethyl)pyridin-3-yl)methyl)quinazoline-2,4-diamine], which EC50 [4] is on record?
**A.** The EC50 was 100 to 1000 nM.
